Measurements reported in patent US9364459B2, “3-(indolyl)- or 3-(azaindolyl)- 4-arylmaleimide derivatives for use in the treatment of colon and gastric adenocarcinoma” (Johannes Gutenberg-Universität Mainz, priority 2009, dated 2016).

Key:
[1] = tested on: HT-29 human colon adenocarcinoma cells; experiment: MTT viability assay in HT-29 cells; settings: HT-29, 72 h, read-out: Viability of HT-29 cells as determined by MTT assay
Description: Evaluation of Effect on Viability (MTT Assay)
The antiproliferative activity of test compounds was determined by the 3-(4,5-dimethylthiazol-2-yl)-2,5-diphenyltetrazolium bromide (MTT) assay as described previously (Mosmann, T. et al. (1983) J. Immunol. Methods 65, 55-63). Cells in the exponential growth phase were transferred to 96-well flat-bottom plates. 10,000 viable cells contained in 200 μl cell suspension were plated into each well and incubated over night. Cells were then exposed to various concentrations of test compounds (100 μl/well) for 3 days at 37° C. with 5% CO2. Subsequently, 10 μl/well MTT stock solution (5 mg/ml; Biomol, Germany) was added and the cells were incubated at 37° C. with 5% CO2 for 4 hours. 100 μl solubilization solution (10% SDS in 0.01 M HCl) was added and the cells were incubated at 37° C. with 5% CO2 over night. Plates were read on an ELISA-Reader ELX 800 (BIO-TEK Software KC 4) at 562 nm absorbance. Each experiment was done in triplicate.
HCT-116, HT-29 and SW480 cells were cultured in RPMI1640 supplemented with 10% FCS. […] All cells were maintained at 37° C. and 5% CO2.

GSK-3β = GSK-3β (Homo sapiens (Human), UniProt P49841); experiment: GSK-3β kinase inhibition assay (Millipore IC50Profiler); format: biochemical; settings: for GSK-3β IC50 values, in words: Table 2
GSK-3β, sequence (P49841 whole entry): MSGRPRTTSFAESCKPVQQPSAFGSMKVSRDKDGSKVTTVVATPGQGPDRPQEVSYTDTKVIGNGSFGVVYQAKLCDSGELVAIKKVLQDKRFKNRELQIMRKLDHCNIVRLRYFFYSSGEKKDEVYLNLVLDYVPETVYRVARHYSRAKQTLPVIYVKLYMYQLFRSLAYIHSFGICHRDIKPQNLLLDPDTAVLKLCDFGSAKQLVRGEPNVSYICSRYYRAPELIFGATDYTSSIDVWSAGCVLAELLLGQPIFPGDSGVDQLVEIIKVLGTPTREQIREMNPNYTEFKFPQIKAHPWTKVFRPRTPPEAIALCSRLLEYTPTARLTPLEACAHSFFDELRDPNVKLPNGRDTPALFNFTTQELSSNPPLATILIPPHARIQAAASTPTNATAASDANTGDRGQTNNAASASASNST
From the text: (§1) GSK-3β, VEGFR-2, FLT-3 Kinase Inhibition Assays
(§2) Detailed protocols can be found at: www.millipore.com/drugdiscovery/dd3/assayprotocols.

HT-29 = experiment: Nicoletti apoptosis assay in HT-29 cells; format: cell-based, human; settings: for Sub-G1 Fraction: HT-29; for Activity in combination with irinotecan relative to compound A, in words: HT-29 cells
Description: (§3) Nicoletti Apoptosis Assay by Cell Cycle Analysis
(§4) Cancer cells were transferred to 12-well flat-bottomed plates. […] Subsequently, cells were incubated in 1 ml medium containing various concentrations of test compounds at 37° C. with 5% CO2. After incubation the cells were washed with PBS, trypsinized, pelleted and mixed with PI buffer (containing 0.1% sodium citrate, 0.1% triton X-100, […] propidium iodide (PI)) and incubated for 1 hour at 4° C. Cell cycle sub-G1 fraction analysis was performed as described previously (Nicoletti, I. et al. (1991) J. Immunol. Methods 139, 271-279) using a flow cytometer (BD FACS Calibur™, BD Biosciences, Heidelberg, Germany). Each experiment was done in triplicate.

VEGFR-2 = VEGFR-2 (Homo sapiens (Human), UniProt P35968); experiment: VEGFR-2 kinase inhibition assay (Millipore IC50Profiler); format: biochemical; settings: for VEGFR-2 IC50 values, in words: Table 2
VEGFR-2, sequence (P35968 20-1356): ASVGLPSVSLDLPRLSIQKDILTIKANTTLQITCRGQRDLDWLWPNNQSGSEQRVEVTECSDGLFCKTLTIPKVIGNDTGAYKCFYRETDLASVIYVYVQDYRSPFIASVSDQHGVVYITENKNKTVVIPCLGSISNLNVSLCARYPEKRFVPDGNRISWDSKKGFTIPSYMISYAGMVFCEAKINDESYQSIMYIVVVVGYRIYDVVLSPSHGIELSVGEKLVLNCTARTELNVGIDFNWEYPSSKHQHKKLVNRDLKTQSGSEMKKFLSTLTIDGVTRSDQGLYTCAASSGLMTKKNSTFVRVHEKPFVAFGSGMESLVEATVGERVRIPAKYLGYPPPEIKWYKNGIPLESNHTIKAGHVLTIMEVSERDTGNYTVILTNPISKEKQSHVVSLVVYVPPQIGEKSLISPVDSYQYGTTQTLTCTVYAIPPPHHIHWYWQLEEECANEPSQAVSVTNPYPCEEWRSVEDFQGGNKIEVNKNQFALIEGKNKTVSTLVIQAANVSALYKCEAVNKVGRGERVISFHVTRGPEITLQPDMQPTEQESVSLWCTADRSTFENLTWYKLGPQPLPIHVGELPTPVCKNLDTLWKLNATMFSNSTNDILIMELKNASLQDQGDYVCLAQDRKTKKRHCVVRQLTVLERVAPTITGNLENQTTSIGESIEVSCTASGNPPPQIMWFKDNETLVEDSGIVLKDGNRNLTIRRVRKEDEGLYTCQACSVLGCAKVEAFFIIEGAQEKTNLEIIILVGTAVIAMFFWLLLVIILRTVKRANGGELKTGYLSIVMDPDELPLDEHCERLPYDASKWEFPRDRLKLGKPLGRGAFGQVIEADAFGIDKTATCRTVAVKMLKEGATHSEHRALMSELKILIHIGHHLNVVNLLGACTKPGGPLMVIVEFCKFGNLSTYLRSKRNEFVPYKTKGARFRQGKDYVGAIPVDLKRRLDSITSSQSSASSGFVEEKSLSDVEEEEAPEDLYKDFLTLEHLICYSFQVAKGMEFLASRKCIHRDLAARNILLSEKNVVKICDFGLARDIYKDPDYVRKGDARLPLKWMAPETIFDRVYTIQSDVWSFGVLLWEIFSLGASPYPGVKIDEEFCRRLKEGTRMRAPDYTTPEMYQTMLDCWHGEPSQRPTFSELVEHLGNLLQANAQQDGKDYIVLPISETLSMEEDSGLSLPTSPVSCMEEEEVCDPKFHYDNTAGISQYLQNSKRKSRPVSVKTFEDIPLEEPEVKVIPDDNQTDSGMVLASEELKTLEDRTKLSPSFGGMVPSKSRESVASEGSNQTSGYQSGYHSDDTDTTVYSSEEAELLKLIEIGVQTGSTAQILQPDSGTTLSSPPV
From the text: as §1, §2

FLT-3 = FLT-3 (Homo sapiens (Human), UniProt P36888); experiment: FLT-3 kinase inhibition assay (Millipore IC50Profiler); format: biochemical; settings: for FLT-3 inhibition, in words: Table 2
FLT-3, sequence (P36888 27-993): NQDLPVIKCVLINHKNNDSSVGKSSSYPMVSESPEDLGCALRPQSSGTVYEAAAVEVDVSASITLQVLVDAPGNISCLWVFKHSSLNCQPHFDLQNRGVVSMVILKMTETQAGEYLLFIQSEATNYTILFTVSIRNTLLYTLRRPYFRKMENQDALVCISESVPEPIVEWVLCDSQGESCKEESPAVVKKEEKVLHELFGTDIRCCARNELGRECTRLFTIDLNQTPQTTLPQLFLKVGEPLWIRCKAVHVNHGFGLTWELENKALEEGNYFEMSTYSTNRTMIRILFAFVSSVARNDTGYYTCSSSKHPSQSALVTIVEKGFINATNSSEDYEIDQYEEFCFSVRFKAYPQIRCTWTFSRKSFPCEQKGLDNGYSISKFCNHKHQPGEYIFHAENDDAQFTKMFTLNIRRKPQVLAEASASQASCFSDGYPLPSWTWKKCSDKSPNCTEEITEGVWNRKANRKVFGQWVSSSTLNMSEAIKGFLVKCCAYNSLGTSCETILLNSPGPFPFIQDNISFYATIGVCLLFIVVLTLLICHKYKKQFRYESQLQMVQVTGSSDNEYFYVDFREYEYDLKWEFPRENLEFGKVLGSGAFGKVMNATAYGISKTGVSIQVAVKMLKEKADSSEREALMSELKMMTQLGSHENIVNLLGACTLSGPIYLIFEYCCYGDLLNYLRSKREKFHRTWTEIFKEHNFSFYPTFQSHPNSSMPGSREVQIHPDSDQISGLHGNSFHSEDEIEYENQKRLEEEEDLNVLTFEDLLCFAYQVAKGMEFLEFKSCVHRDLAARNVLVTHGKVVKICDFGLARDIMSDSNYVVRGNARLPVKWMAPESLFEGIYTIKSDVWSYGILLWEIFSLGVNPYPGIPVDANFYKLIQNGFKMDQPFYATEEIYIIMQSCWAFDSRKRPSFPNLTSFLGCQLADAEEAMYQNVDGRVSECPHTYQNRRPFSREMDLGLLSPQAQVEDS
Description: as §1
The effect of test compounds on the activity of the protein kinases GSK-3β, VEGFR-2 and FLT-3 was evaluated based on half maximal inhibitory concentration (IC50) values determined by Millipore UK Ltd; Gemini Crescent; Dundee Technology Park; Dundee DD2 1SW; UK (IC50Profiler). Detailed protocols can be found at: www.millipore.com/drugdiscovery/dd3/assayprotocols.

HUVEC = experiment: Nicoletti apoptosis assay (sub-G1 fraction) in HUVEC; format: cell-based, human; settings: 4 days, untreated 15.4 ± 1.5%
Description: as §3, §4
The same analysis was performed with HUVEC cells. 1.5×10^4 cells were plated into each well and treated with test compounds for 4 days.
Human Umbilical Vein Endothelial Cells (HUVEC) known for mitogenic specifity for VEGF were obtained from the Department of Pathology, University Hospital of Mainz, Germany. The cells were cultured in M199 supplemented with 20% FCS, 1% Pen/Strep, 0.34% GlutaMAX-I, 25 μg/ml Endothelial Cell Growth Supplement (BD Biosciences), 25 μg/ml Heparin sodium (179 USP units/mg; Sigma, Germany) and were maintained at 37° C. and 5% CO2.

[2] = tested on: chick embryo microvessel formation; experiment: Quantitative chick embryo in vivo assay of antiangiogenic activity; settings: Gallus gallus; 26 nM drug concentration/pellet; 24 hours incubation; read-out: Inhibition of microvessel area
Description: Evaluation of Antiangiogenic Activity in a Quantitative Chick Embryo In Vivo Assay
The inhibition of angiogenesis (new blood vessel formation) was measured as described in WO2006/061212.

[3] = Table 8, 7.9 μM test compound alone, drug-free control 3.4 ± 0.9%
[4] = Table 8, 7.9 μM test compound plus 1.18 μM irinotecan

SMILES	IC50 (GSK-3β) [nM]	melting point [°C]	IC50 (VEGFR-2) [nM]	IC50 (FLT-3) [nM]	GSK-3β IC50 values, in words (GSK-3β)	viability at 2.6 µM [1] [%]	viability at 7.9 µM [1] [%]	viability at 26 µM [1] [%]	viability at 52 µM [1] [%]	Sub-G1 Fraction (HT-29; [3]) [%]	Sub-G1 Fraction (HT-29; [4]) [%]	further results
COc1cc(C2=C(c3c[nH]c4cccnc34)C(=O)NC2=O)cc(OC)c1OC [E, 3-(4-Azaindol-3-yl)-4-(3,4,5-trimethoxyphenyl)-1H-pyrrol-2,5-dione]	215	274 to 275	373	1520	–	114 ± 5.2	98.31 ± 0.9	92.6 ± 2.8	65.8 ± 1.5	4.22 ± 0.74	25.71 ± 1.97	–
COc1cc(C2=C(c3c[nH]c4ccc(Br)cc34)C(=O)NC2=O)cc(OC)c1OC [P, 3-(5-Bromo-1H-indol-3-yl)-4-(3,4,5-trimethoxyphenyl)-maleinimide]	–	259 to 262	–	–	–	37.83 ± 0.19	20.6 ± 0.35	7.07 ± 1.37	8.68 ± 0.37	1.81 ± 0.36	55.00 ± 0.33	Activity in combination with irinotecan relative to compound A, in words (HT-29): at least comparable with compound A; Sub-G1 Fraction (HUVEC; 0.79 μM): 24.0 ± 1.9%; Sub-G1 Fraction (HUVEC; 2.6 μM): 31.6 ± 2.0%; Sub-G1 Fraction (HUVEC; 7.9 μM): 54.4 ± 3.2%; inhibition at 0.026 µM [2]: 35%
COc1cc(C2=C(c3cn(CCN4CCCCC4)c4ccccc34)C(=O)NC2=O)cc(OC)c1OC [L, 3-{1-[2-(piperidin-1-yl)ethyl]-1H-indol-3-yl}-4-(3,4,5-trimethoxyphenyl)-maleinimide]	> 1000	179 to 180	1210	1240	–	–	–	–	–	4.64 ± 0.75	62.32 ± 1.63	Activity in combination with irinotecan relative to compound A, in words (HT-29): even more potent than compound A
CCN(CC)CCNC(=O)c1c(C)[nH]c(/C=C2\C(=O)Nc3ccc(F)cc32)c1C [sunitinib, reference compound]	–	–	–	–	–	–	–	–	–	–	–	Sub-G1 Fraction (HT-29; Table 9, 5 μM sunitinib plus 1.18 μM Irinotecan, 7 days): 24.5 ± 1.2%; Sub-G1 Fraction (HT-29; Table 9, single-agent treatment, 5 μM sunitinib, 7 days): 11.8 ± 1.0%
COc1cc(C2=C(c3c[nH]c4cnccc34)C(=O)NC2=O)cc(OC)c1OC [Compound C, 3-(6-Azaindol-3-yl)-4-(3,4,5-trimethoxyphenyl)-maleinimid]	< 10	–	48	1900	low nanomolar range	30.4 ± 1.52	25.8 ± 3.52	12.7 ± 2.6	4.22 ± 0.44	79.9 ± 4.13	75.69 ± 1.77	Sub-G1 Fraction (HUVEC; 0.79 μM): 48.0 ± 2.3%; Sub-G1 Fraction (HUVEC; 2.6 μM): 66.3 ± 1.0%; VEGFR-2 IC50 values, in words (VEGFR-2): low nanomolar range; inhibition at 0.026 µM [2]: 32%
COc1cc(C2=C(c3c[nH]c4ncccc34)C(=O)NC2=O)cc(OC)c1OC [B, 3-(7-Azaindol-3-yl)-4-(3,4,5-trimethoxyphenyl)-maleinimid]	> 10000	–	37	132	–	65 ± 2.16	45.5 ± 3.71	38.5 ± 0.99	38.1 ± 5.43	2.32 ± 1.16	22.36 ± 2.80	Sub-G1 Fraction (HUVEC; 0.79 μM): 26.7 ± 1.9%; Sub-G1 Fraction (HUVEC; 2.6 μM): 49.2 ± 2.2%; Sub-G1 Fraction (HUVEC; 7.9 μM): 69.5 ± 3.4%; VEGFR-2 IC50 values, in words (VEGFR-2): low nanomolar range; FLT-3 inhibition, in words (FLT-3): most significantly inhibited; inhibition at 0.026 µM [2]: 61%
COc1cc2c(Nc3ccc(Br)cc3F)ncnc2cc1OCC1CCN(C)CC1 [vandetanib, reference compound]	–	–	–	–	–	–	–	–	–	–	–	Sub-G1 Fraction (HT-29; Table 9, 10 μM vandetanib plus 1.18 μM Irinotecan, 7 days): 35.2 ± 0.4%; Sub-G1 Fraction (HT-29; Table 9, single-agent treatment, 10 μM vandetanib, 7 days): 11.1 ± 1.9%
COc1cc(C2=C(c3c[nH]c4ccncc34)C(=O)NC2=O)cc(OC)c1OC [Compound D, 3-(5-Azaindol-3-yl)-4-(3,4,5-trimethoxyphenyl)-maleinimid]	50	–	23	6270	low nanomolar range	62.21 ± 0.33	64.2 ± 0.76	39.6 ± 1.9	19.2 ± 0.26	21.51 ± 2.89	47.53 ± 0.47	Sub-G1 Fraction (HUVEC; 0.79 μM): 25.7 ± 1.2%; Sub-G1 Fraction (HUVEC; 2.6 μM): 70.2 ± 2.7%; Sub-G1 Fraction (HUVEC; 7.9 μM): 79.9 ± 3.8%; VEGFR-2 IC50 values, in words (VEGFR-2): low nanomolar range; inhibition at 0.026 µM [2]: 69%

Continued, in another order:

IC50 (GSK-3β) [nM]	melting point [°C]	IC50 (VEGFR-2) [nM]	IC50 (FLT-3) [nM]	GSK-3β IC50 values, in words (GSK-3β)	SMILES	viability at 2.6 µM [1] [%]	viability at 7.9 µM [1] [%]	viability at 26 µM [1] [%]	viability at 52 µM [1] [%]	Sub-G1 Fraction (HT-29; [3]) [%]	Sub-G1 Fraction (HT-29; [4]) [%]	further results
3580	184 to 185	1300	> 1000	–	COc1cc(C2=C(c3cn(CCN(C)C)c4ccccc34)C(=O)NC2=O)cc(OC)c1OC [J, 3-{1-[2-(Dimethylamino)ethyl]-1H-indol-3-yl}-4-(3,4,5-trimethoxyphenyl)-maleinimide]	–	–	–	–	2.50 ± 1.73	43.48 ± 1.87	–
3240	–	2830	> 10000	–	COc1cc(C2=C(c3cn(CCCN4CCN(C)CC4)c4ccccc34)C(=O)NC2=O)cc(OC)c1OC [N, 3-{1-[3-(4-Methylhexahydro-1-pyrazindiiumyl)propyl]-1H-indol-3-yl}-4-(3,4,5-trimethoxyphenyl)-maleinimide dichloride]	–	–	–	–	3.01 ± 0.40	49.49 ± 1.82	–
129	–	1500	> 1000	low nanomolar range	COc1cc(C2=C(c3cn(CCCN)c4ccccc34)C(=O)NC2=O)cc(OC)c1OC.Cl [G, 3-(1-[3-Ammoniopropyl]-1H-indol-3-yl)-4-(3,4,5-trimethoxyphenyl)-maleinimide-chloride]	–	–	–	–	4.01 ± 0.66	56.01 ± 0.29	–
195	–	1880	227	low nanomolar range	COc1cc(C2=C(c3cn(CCN)c4ccccc34)C(=O)NC2=O)cc(OC)c1OC.Cl [F, 3-(1-[2-Ammonioethyl]-1H-indol-3-yl)-4-(3,4,5-trimethoxyphenyl)-maleinimide-chloride]	–	–	–	–	5.69 ± 0.69	51.00 ± 0.56	FLT-3 inhibition, in words (FLT-3): most significantly inhibited
> 1000	–	> 10000	1530	–	COc1cc(C2=C(c3cn(CCCN(C)C)c4ccccc34)C(=O)NC2=O)cc(OC)c1OC [K, 3-{1-[3-(Dimethylamino)propyl]-1H-indol-3-yl}-4-(3,4,5-trimethoxyphenyl) maleinimide]	–	–	–	–	3.17 ± 0.86	50.28 ± 1.31	–
657	238 to 239	9200	> 10000	–	COc1cc(C2=C(c3cn(CCN4CCOCC4)c4ccccc34)C(=O)NC2=O)cc(OC)c1OC [M, 3-{1-(2-morpholinoethyl)-1H-indol-3-yl}-4-(3,4,5-trimethoxyphenyl)-maleinimide]	–	–	–	–	10.01 ± 2.16	56.81 ± 3.96	–
–	195 to 196	–	554	low nanomolar range	COc1cc(C2=C(c3cn(CCO)c4ccccc34)C(=O)NC2=O)cc(OC)c1OC [H, 3-(1-[2-Hydroxyethyl]-1H-indol-3-yl)-4-(3,4,5-trimethoxyphenyl)-maleinimide]	–	–	–	–	8.08 ± 0.77	71.28 ± 3.51	Activity in combination with irinotecan relative to compound A, in words (HT-29): even more potent than compound A
–	160	–	556	low nanomolar range	COc1cc(C2=C(c3cn(CCCO)c4ccccc34)C(=O)NC2=O)cc(OC)c1OC [I, 3-(1-[3-Hydroxypropyl]-1H-indol-3-yl)-4-(3,4,5-trimethoxyphenyl)-maleinimide]	–	–	–	–	11.25 ± 0.11	65.71 ± 0.04	–
